Test system: Plasmopara viticola
Test: Test Example 1: spray test on grape seedlings inoculated with Plasmopara viticola (protective value)
Assay type: in vivo, Plasmopara viticola on grape (variety: Berry A)
Details: Plasmopara viticola, 168 h, single active ingredient, wettable powder sprayed on grape seedlings before inoculation, assessed after one night plus 7 days, read-out: Actual protective value
Description: Next, it is shown that the present invention compositions have an excellent controlling activity against plant diseases as test example. Generally, an expected controlling value, when two active ingredient compounds are mixed and applied, can be calculated by the Colby's formula described below. E=X+Y−(X×Y)/100 • X: protective value (%) when treatment is carried out by using an active ingredient compound A at the concentration of m ppm. • Y: protective value (%) when treatment is carried out by using an active ingredient compound B at the concentration of n ppm • E: protective value (%) when treatment is carried out by using the active ingredient compound A at the concentration of m ppm and the active ingredient compound B at the concentration of n ppm (hereinafter referred to as “expected protective value”) And, generally speaking, if actual protective value (%) when treatment is carried out by actually mixing two kinds of active ingredient compounds is not less than the expected protective value (%), it can be said that there is a mixing effect.
Sandy loam soil was compacted in a plastic pot, and a grape (variety: Berry A) was seeded and grown in a green house for 40 days. The test drug formulated to wettable powder according to Formulation Example 5, then, diluted with water to provide prescribed concentration, and these diluted solutions were sprayed onto stems and leaves so as to give sufficient adhesion on the surface of grape leaves. After that, a suspension of zoosporangia of Plasmopara viticola was inoculated by spraying to stems and leaves of the grape seedling. After inoculation, the grape seedling was first grown for one night at 23° C. under humid, then further grown for 7 days in the green house. Then, the ratio of diseased area (%) of Plasmopara viticola on stems and leaves of the grape seedling was investigated and the actual protective value was obtained according to the formula described below form the investigated result. protective value (%)={[the ratio of diseased area of non treated plant (%)−the ratio of diseased area of treated plant (%)/]/[the ratio of diseased area of non treated plant (%)]}×100

Row | SMILES | pest or weed control at 50 ppm [%]
1 | C#CCOc1ccc(CCC(=O)NCc2ccc(C)cc2)cc1OC [(I-1), N-(4-methylbenzyl)-3-{3-methoxy-4-(2-propynyloxy)phenyl}pro panamide] | 100
2 | C#CCOc1ccc(CCC(=S)NCc2ccc(C)cc2)cc1OC [(I-3), N-(4-methylbenzyl)-3-(3-methoxy-4-(2-propynyloxy)phenyl}pro panthioamide] | 100
3 | C#CCOc1ccc(CCC(=S)NCc2ccc(C)c(C)c2)cc1OC [(I-4), N-(3,4-dimethylbenzyl)-3-{3-methoxy-4-(2-propynyloxy)phenyl}propanthioamide] | 100
4 | C#CCOc1ccc(CCC(=O)NC(C#N)c2ccccc2)cc1OC (stereo not drawn) [(I-5), N-(1-phenyl-1-cyanomethyl)-3-{3-methoxy-4-(2-propynyloxy)phenyl}propanamide] | 100
5 | C#CCOc1ccc(CCC(=O)NC(C#N)c2ccc(C)cc2)cc1OC (stereo not drawn) [(I-6), N-{1-(4-methylphenyl)-1-cyanomethyl)-3-(3-methoxy-4-(2-propynyloxy)phenyl}propanamide] | 100
6 | CCOc1ccc(CCC(=O)NC(C#N)c2ccc(C)cc2)cc1OC (stereo not drawn) [(I-7), N-{1-(4-methylphenyl)-1-cyanomethyl}-3-(3-methoxy-4-ethoxyphenyl)propanamide] | 100
7 | C#CCOc1ccc(CCC(=O)NCc2ccc(CC)cc2)cc1OC [(I-8), N-(4-ethylbenzyl)-3-{3-methoxy-4-(2-propynyloxy)phenyl}prop anamide] | 100
8 | C#CCOc1ccc(CCC(=O)NC(C#N)c2ccc(CC)cc2)cc1OC (stereo not drawn) [(I-9), N-{1-(4-ethylphenyl)-1-cyanomethyl)-3-(3-methoxy-4-(2-propynyloxy)phenyl)propanamide] | 100
9 | C#CCOc1ccc(CCC(=O)NCc2ccc(Cl)cc2)cc1OC [(I-10), N-(4-chlorobenzyl)-3-(3-methoxy-4-(2-propynyloxy)phenyl}pro panamide] | 100
10 | C#CCOc1ccc(CCC(=O)NCc2ccc(Cl)c(Cl)c2)cc1OC [(I-11), N-(3,4-dichlorobenzyl)-3-{3-methoxy-4-(2-propynyloxy)phenyl}propanamide] | 100
11 | C#CCOc1ccc(CCC(=S)NCc2ccc(Cl)cc2)cc1OC [(I-13), N-(4-chlorobenzyl)-3-(3-methoxy-4-(2-propynyloxy)phenyl}pro panthioamide] | 100
12 | C#CCOc1ccc(CCC(=S)NCc2ccc(Cl)c(Cl)c2)cc1OC [(I-14), N-(3,4-dichlorobenzyl)-3-{3-methoxy-4-(2-propynyloxy)phenyl}propanthioamide] | 100
13 | C#CCOc1ccc(CCC(=S)NCc2ccc(Cl)cc2)cc1OCC [(I-15), N-(4-chlorobenzyl)-3-(3-ethoxy-4-(2-propynyloxy)phenyl)prop anthioamide] | 100
14 | C#CCOc1ccc(CCC(=O)NC(C#N)c2ccc(Cl)cc2)cc1OC (stereo not drawn) [(I-16), N-{1-(4-chlorophenyl)-1-cyanomethyl}-3-{3-methoxy-4-(2-propynyloxy)phenyl}propanamide] | 100
15 | CCOc1ccc(CCC(=O)NC(C#N)c2ccc(Cl)cc2)cc1OC (stereo not drawn) [(I-17), N-{1-(4-chlorophenyl)-1-cyanomethyl)-3-(3-methoxy-4-ethoxyphenyl)propanamide] | 100
16 | C#CCOc1ccc(CCC(=S)NCc2ccc(Br)cc2)cc1OC [(I-19), N-(4-bromobenzyl)-3-{3-methoxy-4-(2-propynyloxy)phenyl)prop anthioamide] | 100
17 | C#CCOc1ccc(CCC(=O)NC(C#N)c2ccc(Br)cc2)cc1OC (stereo not drawn) [(I-20), N-{1-(4-bromophenyl)-1-cyanomethyl}-3-(3-methoxy-4-(2-propynyloxy)phenyl}propanamide] | 100
18 | C#CCOc1ccc(CCC(=O)NCc2ccc3c(c2)CCC3)cc1OC [(I-22), N-{(indan-5-yl)methyl}-3-{3-methoxy-4-(2-propynyloxy)phenyl}propanamide] | 100
19 | C#CCOc1ccc(CCC(=S)NCc2ccc3c(c2)CCC3)cc1OC [(I-23), N-(indan-5-ylmethyl)-3-(3-methoxy-4-(2-propynyloxy)phenyl)p ropanthioamide] | 100
20 | C#CCOc1ccc(CCC(=O)NC(C#N)c2ccc3c(c2)CCC3)cc1OC (stereo not drawn) [(I-24), N-{1-(indan-5-yl)-1-cyanomethyl}-3-{3-methoxy-4-(2-propynyloxy)phenyl}propanamide] | 100
21 | C#CCOc1ccc(CCC(=O)NCc2ccc3c(c2)CCCC3)cc1OC [(I-25), N-((5,6,7,8-tetrahydronaphthalene-2-yl)methyl)-3-(3-methoxy-4-(2-propynyloxy)phenyl)propanamide] | 100
22 | C#CCOc1ccc(CCC(=S)NCc2ccc3c(c2)CCCC3)cc1OC [(I-26), N-(5,6,7,8-tetrahydronaphthalene-2-ylmethyl)-3-(3-methoxy-4-(2-propynyloxy)phenyl}propanthioamide] | 100
23 | C#CCOc1ccc(CCC(=O)NCc2ccc3ccccc3c2)cc1OC [(I-28), N-{(naphthalene-2-yl)methyl}-3-{3-methoxy-4-(2-propynyloxy)phenyl}propanamide] | 100
24 | C#CCOc1ccc(CCC(=S)NCc2ccc3ccccc3c2)cc1OC [(I-29), N-{(naphthalene-2-yl)methyl}-3-{3-methoxy-4-(2-propynyloxy)phenyl)propanthioamide] | 100
25 | COc1ccc(C(=CC(=O)N2CCOCC2)c2ccc(Cl)cc2)cc1OC [dimethomorph, 4-[3-(4-chlorophenyl)-3-(3,4-dimethoxyphenyl)acryloyl]morph oline, reference compound] | 100

Same assay, conditions: single active ingredient, 50 ppm, wettable powder sprayed on grape seedlings before inoculation, assessed after one night plus 7 days

Row | SMILES | Actual protective value [%]
26 | C#CCOc1ccc(CCC(=O)NCc2ccc(C)c(C)c2)cc1OC [(I-2)] | 100
27 | C#CCOc1ccc(CCC(=O)NCc2ccc(Cl)cc2)cc1OCC [(I-12), N-(4-chlorobenzyl)-3-{3-ethoxy-4-(2-propionyloxy)phenyl}pro panamide] | 100
28 | C#CCOc1ccc(CCC(=O)NCc2ccc(Br)cc2)cc1OC [(I-18)] | 100
29 | CCOc1ccc(CCC(=O)NC(C#N)c2ccc(Br)cc2)cc1OC (stereo not drawn) [(I-21)] | 100
30 | C#CCOc1ccc(CCC(=O)NC(C#N)c2ccc3c(c2)CCCC3)cc1OC (stereo not drawn) [(I-27), N-{1-(5,6,7,8-tetrahydronaphthalene-2-yl)-1-cyanomethyl}-3-(3-methoxy-4-(2-propyonyloxy)phenyl)propanamide] | 100

Reference: patent US20050282888A1, “Fungicidal composition” (Sumitomo Chemical Company, Limited, priority 2004, published 2005)
